Assay results taken from patent publication US20070010671A1, “Novel quinazoline derivatives and methods of treatment related to the use thereof” (priority 2003, published 2007).

target: MCH receptor (Homo sapiens, UniProt Q99705); test: High throughput functional screening FLIPR/FDSS6000: inhibition of MCH-evoked intracellular Ca2+ changes; format: cell-based; details: class by percent of control at 10^-7 M or IC50
In short: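 Cells expressing a non-endogenous, constitutively active MCH receptor were loaded with 4 μM Fluo4-AM (with probenecid) for 1 hr at 37° C. Test compound was preincubated 3 min at 37° C before 50 nM MCH was added. The [Ca2+]i transient was read at Ex 488/Em 530 nm for 290 s.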

Compound	class
Cc1ccc(CCNC(=S)NC[C@H]2CC[C@@H](Nc3nc(N(C)C)c4ccccc4n3)CC2)cc1 [compound 744]	3 (Class 3: The value of percent of control at 10^−7 M was more than 60% or the value of IC50 was more than 200 nM.)
COC(=O)c1scc(C)c1NC(=S)N[C@H]1CC[C@@H](Nc2nc(N(C)C)c3ccccc3n2)CC1 [compound 381]	1 (Class 1: The value of percent of control at 10^−7 M was less than 40% or the value of IC50 was less than 50 nM.)
CN(C)c1nc(N[C@H]2CC[C@@H](CNC(=S)Nc3ccc(Cl)cc3Cl)CC2)nc2ccccc12 [compound 589]	3 (Class 3: The value of percent of control at 10^−7 M was more than 60% or the value of IC50 was more than 200 nM.)
COc1ccc(NC(=O)NC[C@H]2CC[C@@H](Nc3nc(N(C)C)c4ccccc4n3)CC2)cc1OC [compound 523]	3 (Class 3: The value of percent of control at 10^−7 M was more than 60% or the value of IC50 was more than 200 nM.)
CCCCCCCCCCc1ccc(NC(=S)N[C@H]2CC[C@@H](Nc3nc(N(C)C)c4ccccc4n3)CC2)cc1 [compound 315]	3 (Class 3: The value of percent of control at 10^−7 M was more than 60% or the value of IC50 was more than 200 nM.)
CCOC(=O)c1cccc(NC(=S)NC[C@H]2CC[C@@H](Nc3nc(N(C)C)c4ccccc4n3)CC2)c1 [compound 730]	3 (Class 3: The value of percent of control at 10^−7 M was more than 60% or the value of IC50 was more than 200 nM.)
CN(C)c1nc(N[C@H]2CC[C@@H](CNC(=S)Nc3ccccc3Cl)CC2)nc2ccccc12 [compound 626]	3 (Class 3: The value of percent of control at 10^−7 M was more than 60% or the value of IC50 was more than 200 nM.)
CN(C)c1nc(N[C@H]2CC[C@@H](CNC(=O)Nc3ccc(F)cc3[N+](=O)[O-])CC2)nc2ccccc12 [compound 551, N-[(cis-4-{[4-(dimethylamino)quinazolin-2-yl]amino}cyclohexyl)methyl]-N′-(4-fluoro-2-nitrophenyl)urea]	2 (Class 2: The value of percent of control at 10^−7 M was from 40% to 60% or the value of IC50 was from 50 nM to 200 nM.)
Cc1ccc(NC(=S)NC[C@H]2CC[C@@H](Nc3nc(N(C)C)c4ccccc4n3)CC2)c(C)c1 [compound 673]	3 (Class 3: The value of percent of control at 10^−7 M was more than 60% or the value of IC50 was more than 200 nM.)
CN(C)c1nc(N[C@H]2CC[C@@H](CNC(=S)Nc3ccc(I)cc3)CC2)nc2ccccc12 [compound 661]	3 (Class 3: The value of percent of control at 10^−7 M was more than 60% or the value of IC50 was more than 200 nM.)
CN(C)c1nc(N[C@H]2CC[C@@H](CNC(=O)Nc3cc(Cl)ccc3[N+](=O)[O-])CC2)nc2ccccc12 [compound 566]	3 (Class 3: The value of percent of control at 10^−7 M was more than 60% or the value of IC50 was more than 200 nM.)
CCc1cccc(C)c1NC(=S)N[C@H]1CC[C@@H](Nc2nc(N(C)C)c3ccccc3n2)CC1 [compound 255, N-(cis-4-{[4-(dimethylamino)quinazolin-2-yl]amino}cyclohexyl)-N′-(2-ethyl-6-methylphenyl)thiourea]	1 (Class 1: The value of percent of control at 10^−7 M was less than 40% or the value of IC50 was less than 50 nM.)
Cc1ccc(NC(=S)N[C@H]2CC[C@@H](Nc3nc(N(C)C)c4ccccc4n3)CC2)cc1Cl [compound 262]	2 (Class 2: The value of percent of control at 10^−7 M was from 40% to 60% or the value of IC50 was from 50 nM to 200 nM.)
CN(C)c1nc(N[C@H]2CC[C@@H](CNC(=S)Nc3ccc(Oc4ccccc4)cc3)CC2)nc2ccccc12 [compound 745]	3 (Class 3: The value of percent of control at 10^−7 M was more than 60% or the value of IC50 was more than 200 nM.)
CCCc1ccccc1NC(=O)NC[C@H]1CC[C@@H](Nc2nc(N(C)C)c3ccccc3n2)CC1 [compound 513, N-[(cis-4-{[4-(dimethylamino)quinazolin-2-yl]amino}cyclohexyl)methyl]-N′-(2-propylphenyl)urea]	1 (Class 1: The value of percent of control at 10^−7 M was less than 40% or the value of IC50 was less than 50 nM.)
CN(C)c1nc(N[C@H]2CC[C@@H](CNC(=S)NC3CCCCC3)CC2)nc2ccccc12 [compound 585]	3 (Class 3: The value of percent of control at 10^−7 M was more than 60% or the value of IC50 was more than 200 nM.)
CN(C)c1nc(N[C@H]2CC[C@@H](CNC(=S)Nc3ccc(Br)cc3)CC2)nc2ccccc12 [compound 582]	3 (Class 3: The value of percent of control at 10^−7 M was more than 60% or the value of IC50 was more than 200 nM.)
CN(C)c1nc(N[C@H]2CC[C@@H](NC(=S)Nc3ccc([N+](=O)[O-])cc3Cl)CC2)nc2ccccc12 [compound 214]	2 (Class 2: The value of percent of control at 10^−7 M was from 40% to 60% or the value of IC50 was from 50 nM to 200 nM.)
CN(C)c1ccc(/N=N/c2ccc(NC(=S)N[C@H]3CC[C@@H](Nc4nc(N(C)C)c5ccccc5n4)CC3)cc2)cc1 [compound 391]	3 (Class 3: The value of percent of control at 10^−7 M was more than 60% or the value of IC50 was more than 200 nM.)
CN(C)c1nc(N[C@H]2CC[C@@H](CNC(=O)Nc3c(Cl)c(Cl)cc(Cl)c3Cl)CC2)nc2ccccc12 [compound 472, N-[(cis-4-{[4-(dimethylamino)quinazolin-2-yl]amino}cyclohexyl)methyl]-N′-(2,3,5,6-tetrachlorophenyl)urea]	2 (Class 2: The value of percent of control at 10^−7 M was from 40% to 60% or the value of IC50 was from 50 nM to 200 nM.)
Cc1cccc(C(C)(C)C)c1NC(=O)NC[C@H]1CC[C@@H](Nc2nc(N(C)C)c3ccccc3n2)CC1 [compound 515, N-(2-tert-butyl-6-methylphenyl)-N′-[(cis-4-{[4-(dimethylamino)quinazolin-2-yl]amino}cyclohexyl)methyl]urea]	1 (Class 1: The value of percent of control at 10^−7 M was less than 40% or the value of IC50 was less than 50 nM.)
Cc1cc(Cl)ccc1NC(=S)N[C@H]1CC[C@@H](Nc2nc(N(C)C)c3ccccc3n2)CC1 [compound 269]	1 (Class 1: The value of percent of control at 10^−7 M was less than 40% or the value of IC50 was less than 50 nM.)
Cc1cccc(C)c1NC(=O)NC[C@H]1CC[C@@H](Nc2nc(N(C)C)c3ccccc3n2)CC1 [compound 420, N-[(cis-4-{[4-(dimethylamino)quinazolin-2-yl]amino}cyclohexyl)methyl]-N′-(2,6-dimethylphenyl)urea]	1 (Class 1: The value of percent of control at 10^−7 M was less than 40% or the value of IC50 was less than 50 nM.)
CN(C)c1nc(N[C@H]2CC[C@@H](NC(=S)NC(=O)/C=C/c3ccccc3)CC2)nc2ccccc12 [compound 326]	3 (Class 3: The value of percent of control at 10^−7 M was more than 60% or the value of IC50 was more than 200 nM.)
COc1ccc([N+](=O)[O-])cc1NC(=O)NC[C@H]1CC[C@@H](Nc2nc(N(C)C)c3ccccc3n2)CC1 [compound 505, N-[(cis-4-{[4-(dimethylamino)quinazolin-2-yl]amino}cyclohexyl)methyl]-N′-(2-methoxy-5-nitrophenyl)urea]	2 (Class 2: The value of percent of control at 10^−7 M was from 40% to 60% or the value of IC50 was from 50 nM to 200 nM.)
CN(C)c1nc(N[C@H]2CC[C@@H](CNC(=S)Nc3cccc(F)c3)CC2)nc2ccccc12 [compound 650]	3 (Class 3: The value of percent of control at 10^−7 M was more than 60% or the value of IC50 was more than 200 nM.)

same assay, conditions: class by percent of control at 10^-7 M or by IC50; read-out: class

IC50	Compound
> 200 nM	CN(C)c1nc(N[C@H]2CC[C@@H](NC(=O)Nc3ccccc3F)CC2)nc2ccccc12 [compound 38]
50 to 200 nM	COc1ccc(OC)c(NC(=O)N[C@H]2CC[C@@H](Nc3nc(N(C)C)c4ccccc4n3)CC2)c1 [compound 81]
< 50 nM	CCCc1ccccc1NC(=O)N[C@H]1CC[C@@H](Nc2nc(N(C)C)c3ccccc3n2)CC1 [compound 114, N-(cis-4-{[4-(dimethylamino)quinazolin-2-yl]amino}cyclohexyl)-N′-(2-propylphenyl)urea]
< 50 nM	Cc1cccc(C)c1NC(=O)N[C@H]1CC[C@@H](Nc2nc(N(C)C)c3ccccc3n2)CC1 [compound 19, N-(cis-4-{[4-(dimethylamino)quinazolin-2-yl]amino}cyclohexyl)-N′-(2,6-dimethylphenyl)urea]
50 to 200 nM	CN(C)c1nc(N[C@H]2CC[C@@H](NC(=S)NCc3ccc4c(c3)OCO4)CC2)nc2ccccc12 [compound 180, N-(1,3-benzodioxol-5-ylmethyl)-N′-(cis-4-{[4-(dimethylamino)quinazolin-2-yl]amino}cyclohexyl)thiourea]
> 200 nM	CN(C)c1nc(N[C@H]2CC[C@@H](NC(=S)NC(C)(C)CC(C)(C)C)CC2)nc2ccccc12 [compound 190]
> 200 nM	CN(C)c1nc(N[C@H]2CC[C@@H](NC(=O)Nc3ccccc3OC(F)F)CC2)nc2ccccc12 [compound 69]

same assay, conditions: class by percent of control at 10^−7 M or by IC50; read-out: class

IC50	Compound
< 50 nM	C[C@@H](NC(=O)[C@H]1CC[C@@H](Nc2nc(N(C)C)c3ccccc3n2)CC1)c1ccc(Cl)cc1 [Example 1139, cis-N-[(1R)-1-(4-chlorophenyl)ethyl)-4-{[4-(dimethylamino)quinazolin-2-yl]amino}cyclohexanecarboxamide]
50 to 200 nM	COc1ccc(C(O)C(=O)NC[C@H]2CC[C@@H](Nc3nc(N(C)C)c4ccccc4n3)CC2)cc1 (relative stereo) [Example 1096, N-[(cis-4-{[4-(dimethylamino)quinazolin-2-yl]amino}-cyclohexyl)-methyl]-2-hydroxy-2-(4-methoxyphenyl)acetamide]
< 50 nM	CN(C)c1nc(N[C@H]2CC[C@@H](NC(=O)[C@@H](O)c3ccccc3Cl)CC2)nc2ccccc12 [Example 1114, (2S)-2-(2-chlorophenyl)-N-(cis-4-{[4-(dimethylamino)quinazolin-2-yl]amino}cyclohexyl)-2-hydroxyacetamide]
